Measurements from patent publication US7223759B2, “Antibacterial 3,5-diaminopiperidine-substituted aromatic and heteroaromatic compounds” (Anadys Pharmaceuticals, Inc., priority 2003, dated 2007).
Like-named read-outs stand apart in the source and are kept apart here.

Tested on: Escherichia coli (ATCC25922) or Staphylococcus aureus (ATCC25923)
Experiment: Antibacterial MIC, microdilution method in Mueller-Hinton medium
Format: cell-based
Settings: Escherichia coli, 18 h, read-out: Potency (MIC)
Summary of the method: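 Two-fold serial dilutions from 64 to 0.5 μg/ml, in duplicate, by broth microdilution in Mueller-Hinton medium (NCCLS M7-A5). MIC taken as the lowest concentration preventing visible growth after 18 h at 35° C.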

| MIC (MIC in E. coli or S. aureus, two-fold serial dilutions 64 to 0.5 μg/ml in duplicate, 18 hours of incubation at 35° C.) | Compound | MIC |
| --- | --- | --- |
| – | Cc1cc(Nc2nc(N3C[C@H](N)C[C@H](N)C3)nc(N3C[C@H](N)C[C@H](N)C3)n2)ccc1NC(=O)c1cccc(C)c1O [N-[4-(2-hydroxy-3-methyl-benzoylamino)-3-methyl-phenyl]-4,6-Bis-((3R,5S)-3,5-diamino-piperidin-1-yl)-[1,3,5]triazine-2-amine] | < 64 µg/mL |
| > 64 µg/mL | Cc1cc(NC(=O)c2cccc([N+](=O)[O-])c2O)ccc1Nc1nc(N2CCCCC2)nc(N2CCCCC2)n1.Cl [N-[4-(2-hydroxy-3-nitro-benzoylamino)-2-methyl-pphenyl]-4,6-Bis-((3R,5S)-3,5-diamino-piperidin-1-yl)-[1,3,5]triazine-2-amine] | – |
| – | Cc1cc(Nc2nc(N3C[C@H](N)C[C@H](N)C3)nc(N3C[C@H](N)C[C@H](N)C3)n2)ccc1NC(=O)c1cccc([N+](=O)[O-])c1O [N-[4-(2-hydroxy-3-nitro-benzoylamino)-3-methyl-phenyl]-4,6-Bis-((3R,5S)-3,5-diamino-piperidin-1-yl)-[1,3,5]triazine-2-amine] | < 64 µg/mL |
| – | N[C@@H]1C[C@H](N)CN(c2nc(Nc3ccc(NC(=O)c4cccc([N+](=O)[O-])c4O)cc3)nc(N3C[C@H](N)C[C@H](N)C3)n2)C1 [N-[4-(2-hydroxy-3-nitro-benzoylamino)-phenyl]-4,6-Bis-((3R,5S)-3,5-diamino-piperidin-1-yl)-[1,3,5]triazine-2-amine] | > 64 µg/mL |
| – | COc1ccc(C(=O)Nc2ccc(Nc3nc(N4C[C@H](N)C[C@H](N)C4)nc(N4C[C@H](N)C[C@H](N)C4)n3)cc2)c(O)c1 [N-[4-(2-hydroxy-4-methoxy-benzoylamino)-phenyl]-4,6-Bis-((3R,5S)-3,5-diamino-piperidin-1-yl)-[1,3,5]triazine-2-amine] | > 64 µg/mL |
| – | Cc1ccc(C(=O)Nc2ccc(Nc3nc(N4C[C@H](N)C[C@H](N)C4)nc(N4C[C@H](N)C[C@H](N)C4)n3)c(C)c2)c(O)c1 [N-[4-(2-hydroxy-4-methyl-benzoylamino)-2-methyl-phenyl]-4,6-Bis-((3R,5S)-3,5-diamino-piperidin-1-yl)-[1,3,5]triazine-2-amine] | < 64 µg/mL |
| – | Cc1ccc(C(=O)Nc2ccc(Nc3nc(N4C[C@H](N)C[C@H](N)C4)nc(N4C[C@H](N)C[C@H](N)C4)n3)cc2C)c(O)c1 [N-[4-(2-hydroxy-4-methyl-benzoylamino)-3-methyl-phenyl]-4,6-Bis-((3R,5S)-3,5-diamino-piperidin-1-yl)-[1,3,5]triazine-2-amine] | < 64 µg/mL |
| – | Cc1ccc(C(=O)Nc2ccc(Nc3nc(N4C[C@H](N)C[C@H](N)C4)nc(N4C[C@H](N)C[C@H](N)C4)n3)cc2)c(O)c1 [N-[4-(2-hydroxy-4-methyl-benzoylamino)-phenyl]-4,6-Bis-((3R,5S)-3,5-diamino-piperidin-1-yl)-[1,3,5]triazine-2-amine] | < 16 µg/mL |
| – | COc1ccc(O)c(C(=O)Nc2ccc(Nc3nc(N4C[C@H](N)C[C@H](N)C4)nc(N4C[C@H](N)C[C@H](N)C4)n3)cc2)c1 [N-[4-(2-hydroxy-5-methoxy-benzoylamino)-phenyl]-4,6-Bis-((3R,5S)-3,5-diamino-piperidin-1-yl)-[1,3,5]triazine-2-amine] | < 64 µg/mL |
| – | N[C@@H]1C[C@H](N)CN(c2nc(Nc3ccc(NC(=O)c4cc(OC(F)(F)F)ccc4O)cc3)nc(N3C[C@H](N)C[C@H](N)C3)n2)C1 [N-[4-(2-hydroxy-5-trifluoromethoxy-benzoylamino)-phenyl]-4,6-Bis-((3R,5S)-3,5-diamino-piperidin-1-yl)-[1,3,5]triazine-2-amine] | < 16 µg/mL |
| – | N[C@@H]1C[C@H](N)CN(c2nc(Nc3ccc(NC(=O)CO)cc3)nc(N3C[C@H](N)C[C@H](N)C3)n2)C1 [N-[4-(2-hydroxy-acetylamino)-phenyl]-4,6-Bis-((3R,5S)-3,5-diamino-piperidin-1-yl)-[1,3,5]triazine-2-amine] | > 64 µg/mL |
| – | N[C@@H]1C[C@H](N)CN(c2nc(Nc3ccc(C(=O)CC(=O)Nc4ccccc4)cc3)nc(N3C[C@H](N)C[C@H](N)C3)n2)C1 [N-[4-(2-phenylcarbamoyl-acetyl)-phenyl]-4,6-Bis-((3R,5S)-3,5-diamino-piperidin-1-yl)-[1,3,5]triazine-2-amine] | < 16 µg/mL |
